Measurements published in patent US11780814B2, “Small molecules for treating cancer, inhibiting chemokine activity and/or inducing cell death” (AlonBio Ltd., priority 2019, dated 2023).

Key:
[1] = tested on: CXCR4; settings: animal studies, cited from earlier work
[2] = tested on: U937 cells; experiment: Cell cycle analysis by 7-AAD staining; type: cell-based, human; settings: 24 hours
Description: (§1) To evaluate the effects of BKT300-N1 on cell cycle distribution 7-Aminoactinomycin D (7-AAD) protocol was used. Cells were seeded in 24 wells of microplates at a density of 1×10^6 Cells/well and exposed to different concentrations of the tested compound, BKT300-N1 or BKT300-3-C5, for 24 or 48 hours at 37° C. in a CO2 incubator. After incubation time, cells were collected and washed with cold PBS. Cells were fixed for 20 minutes at 4° C. and processed according to the 7-AAD labeling protocol. The intensity of dye in staining cells was measured by flow cytometry. Cell cycle analysis calculated G0/G1, G2/M and sub-G0 phases from a 7-AAD area histogram.
Using the above protocol, U937 cells were treated with different concentrations of BKT300-N1 or BKT300-3-C5 (0.05, 0.1, 0.5 and 1 μM) for 24 hours and then cell cycle phases were analyzed by flow cytometry using 7-AAD.

[3] = tested on: OVCAR8 cells; experiment: Cell cycle analysis by 7-AAD, Taxol-sensitive ovarian cancer cells; type: cell-based; settings: lowest taxol concentration of 3.75 nM; 24 hours; FIG. 16
Description: Cells (1×10^6 cells/ml) were cultured in 12-well plates in 10% FCS. […] 24 hours incubation, cells were harvested and washed with PBS. The pellet was fixed by adding 200 μl Fix/Perm buffer and vortexed. The fixed cells were incubated for 20 minutes at 4° C. and then 1 ml of Perm/Wash buffer was added. Following centrifugation, supernatant was removed and cells were resuspended in 100 μl Perm/Wash plus 4 μl of 7-AAD and vortexed. The cells were then incubated in the dark for 20 minutes at 4° C. and thereafter 300 μl of PBS was added. Flow cytometry analysis was performed by collecting 20,000 events per sample. […] All results are expressed as average ±SD. Statistical differences were determined by an analysis of two-tailed Student's t test. Values of p<0.05 were considered to be statistically significant. Cells were incubated in different doses of Taxol (30, 15, 7.5, 3.75 nM) for 24 hours and were thereafter analyzed as described hereinabove.

[4] = tested on: HEY-T30 cells; experiment: Cell cycle analysis by 7-AAD, Taxol-resistant ovarian cancer cells; type: cell-based; settings: 24 hours
Description: Cells (1×10^6 cells/ml) were cultured in 12-well plates in 10% FCS. After 24 hours the medium was replaced by 1% FCS and BKT300-N1 or Taxol (250-3.75 nM) were added.
24 hours incubation, cells were harvested and washed with PBS. The pellet was fixed by adding 200 μl Fix/Perm buffer and vortexed. The fixed cells were incubated for 20 minutes at 4° C. and then 1 ml of Perm/Wash buffer was added. Following centrifugation, supernatant was removed and cells were resuspended in 100 μl Perm/Wash plus 4 μl of 7-AAD and vortexed. The cells were then incubated in the dark for 20 minutes at 4° C. and thereafter 300 μl of PBS was added. Flow cytometry analysis was performed by collecting 20,000 events per sample. Analysis was done according to the distribution of cells in three major phases of the cycle: G0/G1 (blue), S (purple), G2/M (green), and apoptotic cells (red), as shown in FIGS. 15-18C.
All results are expressed as average ±SD. Statistical differences were determined by an analysis of two-tailed Student's t test. Values of p<0.05 were considered to be statistically significant.
Cells were incubated in different doses of Taxol (30, 15, 7.5, 3.75 nM) for 24 hours and were thereafter analyzed as described hereinabove.
Next, the effect of BKT300-N1 on the taxol resistance cells was tested. Both ovarian cancer cell lines were incubated with BKT300-N1 (250, 125, 62.5, 31.25, 15.6 nM). For comparison, the effect of the same amounts of Taxol was also tested.

[5] = tested on: human ovarian (CTG-1086) cancer; experiment: Patient derived xenograft (PDX) tumor growth, ovarian; type: in vivo, mice; settings: SC every 12 hours, 5 mg or 10 mg daily dose; compared to vehicle control; FIG. 13A
Description: (§2) In additional experiments, the in vivo efficacy of BKT300-N1, on the growth of subcutaneous, low passage Champions' TumourGraft® patient derived xenograft (PDX) models of human non-small-cell lung (CTG-0198), colorectal (CTG-0923) and ovarian (CTG-1086) cancer in female immunocompromised mice was tested.
(§3) Athymic Nude-Foxn1nu (Immunocompromised) female mice aged 6-8 weeks were implanted with 1-1.5 cm^3 harvested tumors unilaterally on the left flank. When the tumors reached an average volume of 200 cubic millimeters, control group was treated daily with a vehicle and treatment group was treated with either 2.5 mg per mice per injection (low dose) or 5 mg per mice per injection (hight dose) of BKT300-N1. The control group was subcutaneously (SC) injected with the vehicle (Cremophore EL and Ethanol 50%/50% volume/volume) diluted 1:6 with 0.9% Sodium Chloride.
(§4) For the low dose treatment group, a stock solution of 30 mg/mL BKN300-N1 was preapared in the vehicle and further diluted 1:6 with 0.9% Sodium Chloride, to a final concentration of 5 mg/mL. Animals received a 0.5 mL subcutaneously (SC) injection every 12 hours (for a 2.5 mg/injection=5 mg daily dose).
(§5) For the high dose treatment group, a stock solution of 30 mg/mL BKN300-N1 was preapared in the vehicle and further diluted 1:3 with 0.9% Sodium Chloride, to a final concentration of 10 mg/mL. […]

[6] = tested on: cleaved caspase-3 in U937 cells; experiment: Western blot for cleaved caspase-3; type: cell-based, human; settings: 0.1, 0.5 and 1 μM; 24 hours; FIGS. 7A-7B
Description: The role of caspase-3 (CASP3) in the BKT300-N1-induced apoptosis of AML cell lines U937 was tested. Cells were incubated with BKT300-N1 (0.1, 0.5 and 1 μM) for 24 hours, and were then tested for the presence of cleaved caspase 3 using mAb against human cleaved caspase 3 by Western blot assay.

[7] = tested on: HCC SNU449 cells; experiment: Scratch assay (IncuCyte), cell invasion and migration; type: cell-based, human
Description: Scratch assay was performed to assess the effects of BKT300-N1 compared to that of BKT300-3-C5 on cell invasion and migration. This system measures scratch closure in real time and automatically calculates the relative wound density and wound width within the initially-vacant area at each time point. The relative wound density is the ratio of the occupied area to the total area of the initial scratched region.
Cells were plated on 96-well Image-lock plates (Essen Bioscience) and grown overnight to form a spatially uniform monolayer.
Scratches were made by using a 96-pin tool WoundMaker™ (Essen BioScience) to create uniform, reproducible scratches in all the wells of a 96-well plate. After creating the scratch, the medium was aspirated and the wells are washed twice with fresh medium to remove any cells from the scratched area. Following the washes, fresh medium containing different concentrations of the tested compound was added to the wells. Once the fresh medium is added, the plate was placed into the IncuCyte ZOOM™ apparatus and images of the collective cell spreading are recorded every 4 hours for a total duration of 60 hours.
Data processing and analysis were done using the IncuCyte S3 Live-cells Analysis System.
The scratch assay was performed using HCC SNU449 cells. The cells were scratched and incubated with 0.05, 0.1, 0.5, 1 and 10 μM of BKT300-N1 or BKT300-3-C5.

[8] = tested on: human colorectal (CTG-0923) cancer; experiment: Patient derived xenograft (PDX) tumor growth, colorectal; type: in vivo, mice; settings: SC every 12 hours, 5 mg or 10 mg daily dose; compared to vehicle control; FIG. 13C
Description: as §2, §3, §4, §5

[9] = tested on: U937 cells; experiment: Annexin-V/PI apoptosis assay by flow cytometry; type: cell-based, human; settings: 25-1000 nM, 24 hours, compared to BKT300-3-C5
Description: Apoptosis was determined by flow cytometry analysis using Annexin-V kit. U937 cancer cells were incubated in RPMI cell medium with 1% fetal calf serum (FCS) at a concentration of 1×10^6 cells/well at a final volume of 1 ml in 24-well plate. The tested compound (BKT300-N1 or BKT300-3-C5) was added to the cells at the indicated concentrations. After 24 hours incubation, medium and cells were collected and centrifuged, then stained with Annexin-V and propidium iodide (PI) kit according to manufacturer's instructions. The numbers of viable cells (Annexin-V negative/PI negative); early apoptotic cells (Annexin-V positive/PI negative); late apoptosis cells (Annexin-V positive/PI positive) and necrotic cells (Annexin-V negative/PI positive) were then evaluated by flow cytometry (FACS).

[10] = tested on: H69 cells; experiment: Cell cycle analysis by 7-AAD staining; type: cell-based; settings: different concentrations; 48 hours; FIG. 9
Description: as §1
Using the above protocol, H69 cells were treated with different concentrations of BKT300-N1 for 48 hours and then cell cycle phases were analyzed by flow cytometry using 7-AAD. Cells were gated according to the cells cycle phase: P1 for G0/G1 phase; P2-apoptotic cells in subG0 phase; and P3 for G2/M phase.

[11] = tested on: human non-small-cell lung (CTG-0198) cancer; experiment: Patient derived xenograft (PDX) tumor growth, lung; type: in vivo, mice; settings: SC every 12 hours, 5 mg or 10 mg daily dose; compared to vehicle control; FIG. 13B
Description: as §2, §3, §4, §5

[12] = target: SDF-1 (Homo sapiens, UniProt P48061); experiment: Transwell migration assay of Jurkat cells towards SDF-1; type: cell-based; settings: 0.5 μM, 1 μM, or 5 μM; 100 ng/ml SDF-1; 3 hours; FIG. 2
Sequence of SDF-1 (P48061 22-93, species assumed): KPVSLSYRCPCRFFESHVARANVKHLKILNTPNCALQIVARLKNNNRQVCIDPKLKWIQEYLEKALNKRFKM
Description: 600 μl of RPMI medium containing 1% fetal calf serum (FCS) was added to the lower chambers of Transwell® transmigration plates, supplemented with 100 ng/ml of SDF-1. BKT300-N1 was added to the lower chambers at the indicated concentration, except in control samples. The SDF-1 was incubated with BKT300-N1 for 30 minutes at room temperature before the initiation of the migration assay. Following 30 minutes of incubation 2×10^5 Jurkat cells were added to the upper chambers of the transmigration plates in a total volume of 100 μl. Cells which migrated within 3 hours to the bottom chamber of the Transwell® plates were counted using a FACScalibur™ flow cytometer.

[13] = tested on: cancer cells; settings: described in WO 2017/103931; cited from earlier work
[14] = all tested concentrations (0.05, 0.1, 0.5 and 1 μM), FIG. 8A

c1cc(CN2CCCNCCNCCCNCC2)ccc1CN1CCCNCCNCCCNCC1 [plerixafor]
recurrence of glioblastoma associated with vasculogenesis ([1]; Kioi et al. 2010): reduce recurrence of glioblastoma
metastasis ([1]; Smith et al. 2004): reduce metastasis
opioid-induced hyperalgesia ([1]; Wilson et al. 2011): counteract opioid-induced hyperalgesia

CCCCCC1C(=O)Nc2c(Oc3ccc(OC)cc3OC)cc(OC)cc2C1=O (stereo not shown) [BKT300-3-C5, reference compound]
cells death ([2]; concentration lower than 0.5 μM, FIG. 8B): did not induce cells death

CC(=O)O[C@H]1C(=O)[C@@]2(C)[C@H]([C@H](OC(=O)c3ccccc3)[C@]3(O)C[C@H](OC(=O)[C@H](O)[C@@H](NC(=O)c4ccccc4)c4ccccc4)C(C)=C1C3(C)C)[C@]1(OC(C)=O)CO[C@@H]1C[C@@H]2O [Taxol, reference compound]
effect on cell cycle [3]: effect on cell cycle was already evident
effect on cell cycle ([4]; Taxol 30, 15, 7.5, 3.75 nM, FIG. 15): no effect on cell cycle
effects on dead cells, G0/G1 phase and G2/M phase ([4]; any of the tested concentrations (250, 125, 62.5, 31.25, 15.6 nM), FIGS. 18A-18C): no significant effects

CCCCCc1c(O)c2cc(OC)cc(Oc3ccc(O)cc3OC)c2[nH]c1=O [BKT300-N1, 4-hydroxy-8-(4-hydroxy-2-methoxyphenoxy)-6-methoxy-3-pentylquinolin-2(1H)-one]
tumor growth [5]: substantial reduction and even arrest in tumor growth
presence of cleaved caspase-3 (mechanism of induced apoptosis) [6]: via caspase-3 activation
cell cycle arrest [2, 14]: resulted in cell cycle arrest
cells death [2, 14]: induced cells death
wound width values ([7]; 0.05, 0.1, 0.5, 1 and 10 μM, over BKT300-3-C5, particularly at the lower concentrations, FIGS. 4A-4E): improved effect
relative wound area ([7]; at 24 hours, already at 0.1 μM, compared to BKT300-3-C5, FIG. 3): improved effect
tumor growth [8]: substantial reduction and even arrest in tumor growth
viability of U937 cells as the number of Annexin-V−/PI− viable cells ([9]; all tested concentrations, FIG. 6A): improved effect
reduction in the percentage of viable cells via apoptosis ([9]; FIGS. 6A-6B): substantially higher effect
apoptotic cell death [10]: induce apoptotic cell death
cell cycle growth arrest [10]: arrest the growth at the G2M phase
tumor growth [11]: substantial reduction and even arrest in tumor growth
migration of lymphocytic Jurkat cells towards SDF-1 [12]: significantly inhibited
level of dead cells ([4]; significant at a concentration of 62.5 nM, FIG. 18A): increasing the level of dead cells
percentage of cells at G0/G1 phase ([4]; significant at concentration of 125 nM, FIG. 18B): reducing the percentage of cells at G0/G1 phase
level of cells in G2/M phase ([4]; significant at concentration of 125 nM, FIG. 18C): increasing the level of cells in G2/M phase

CCCCCc1cc2cc(O)cc(Oc3c(O)cc(O)cc3CCCCC)c2c(=O)o1 [BKT300]
cancer cell death [13]: inducing cancer cell death
cancer cell migration [13]: inhibiting cancer cell migration
